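Step 1: Grow cells in 96-well plates. Step 2: Expose to compound for 48 hours at 5 concentrations. Step 3: Interpolate endpoints linearly; if unreached, use highest concentration. At the GI50, growth is halved.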 Calls of active or inactive are those of the source. Cut-off read from the data, not from the text of the source: active = GI50 up to about 1.1 µM and inactive = higher.
Columns and labels:
Experiment in all cases: DTP human tumour cell line panel, 48 h
[1] = system: M14
[2] = system: OVCAR-8
[3] = system: UACC-257
[4] = system: M19-MEL
[5] = system: CCRF-CEM
[6] = system: OVCAR-5
[7] = system: OVCAR-4
[8] = system: OVCAR-3
[9] = system: NCI-H522
[10] = system: NCI-H23
[11] = system: UACC-62
[12] = system: HT-29
[13] = system: SK-OV-3
[14] = system: COLO 205
[15] = system: HCT-116
[16] = system: A498
[17] = system: MDA-MB-231
[18] = system: SR
[19] = system: MCF7
[20] = system: PC-3

Measured: GI50

C#CCC(O)c1ccccc1C(O)CC#C (stereo not drawn)
inactive: [1] > 100 µM | [2] > 100 µM | [3] > 100 µM | [4] > 100 µM | [5] > 100 µM | [6] > 100 µM | [7] > 100 µM | [8] > 100 µM | [9] 70.1 µM | [10] > 100 µM | [11] > 100 µM | [12] > 100 µM | [13] 39.7 µM | [14] > 100 µM

O=C1C(=O)N(c2ccc(Cl)cc2)C(=O)C(=O)C1c1nc2ccccc2s1
inactive: [1] > 100 µM | [2] > 100 µM | [3] > 100 µM | [4] > 100 µM | [6] > 100 µM | [7] > 100 µM | [8] > 100 µM | [15] > 100 µM | [9] > 100 µM | [10] > 100 µM | [11] > 100 µM | [12] > 100 µM | [13] > 100 µM | [14] > 100 µM

COc1cc(-c2c(C)c(C)nc(OC)c2C#N)cc(OC)c1OC
inactive: [1] > 100 µM | [2] > 100 µM | [3] 82.2 µM | [4] > 100 µM | [5] > 100 µM | [7] 61 µM | [8] > 100 µM | [15] > 100 µM | [10] > 100 µM | [16] > 100 µM | [11] 40.6 µM | [12] > 100 µM | [13] > 100 µM | [14] > 100 µM

N#CC(C#N)c1ccc(C(=O)N2CCC[C@H]2CO)cc1
inactive: [1] > 100 µM | [2] > 100 µM | [3] > 100 µM | [4] > 100 µM | [5] > 100 µM | [6] > 100 µM | [7] > 100 µM | [8] > 100 µM | [9] > 100 µM | [10] > 100 µM | [11] > 100 µM | [12] > 100 µM | [13] > 100 µM | [14] > 100 µM

C/C(=N\NC(N)=S)c1ccccn1.OB(O)c1ccccc1
inactive: [1] 2.98 µM | [17] 7.16 µM | [2] 3.63 µM | [18] 3.95 µM | [3] 4.47 µM | [19] 4.55 µM | [5] 2.18 µM | [6] 6.05 µM | [7] 4.25 µM | [20] 4.15 µM | [8] 2.62 µM | [15] 3.5 µM | [9] 1.8 µM | [10] 11.3 µM | [16] 5.89 µM | [11] 3.25 µM | [12] 6.47 µM | [13] 5.57 µM | [14] 3.85 µM

CCOC(=O)C(=O)C(CCC(=O)c1ccc2ccccc2c1O)C(=O)OCC (stereo not drawn)
inactive: [1] > 100 µM | [17] > 100 µM | [2] > 100 µM | [18] > 100 µM | [3] > 100 µM | [19] > 100 µM | [5] > 100 µM | [6] > 100 µM | [7] > 100 µM | [20] > 100 µM | [8] > 100 µM | [15] > 100 µM | [9] > 100 µM | [10] > 100 µM | [16] > 100 µM | [11] > 100 µM | [12] > 100 µM | [13] > 100 µM | [14] > 100 µM

c1ccc(CNc2nncc3[nH]cnc23)cc1
inactive: [1] > 100 µM | [17] > 100 µM | [2] > 100 µM | [18] > 100 µM | [3] > 100 µM | [19] > 100 µM | [5] > 100 µM | [6] > 100 µM | [7] > 100 µM | [20] > 100 µM | [8] > 100 µM | [15] > 100 µM | [9] > 100 µM | [10] > 100 µM | [16] > 100 µM | [11] > 100 µM | [12] > 100 µM | [13] > 100 µM | [14] > 100 µM

From ChEMBL document CHEMBL1201862, “PubChem BioAssay data set” (2004)
